From ChEMBL document CHEMBL1201862, “PubChem BioAssay data set” (2004) come the findings set out here.

Each structure is given as a SMILES string.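 Results reflect a 48-hour exposure of cells in 96-well plates to compound at five concentrations. GI50 = concentration required for 50% inhibition of growth.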 Calls of active or inactive are those of the source. No stated cut-off is given here; in the data, active = GI50 up to about 1.1 µM and inactive = higher.

Holding throughout (assay): inhibition of tumour cell growth, NCI panel, 48 h
Assay [1] has as its system COLO 205.
In assay [2] the test system is DMS-114.
For assay [3], the system named is EKVX.
Assay [4] concerns HL-60.
The test system of assay [5] is Malme-3M.
For assay [6], the system named is OVCAR-4.
Assay [7] deals with SF-268.
Assay [8] deals with SF-539.
Assay [9] deals with UO-31.
Assay [10] has as its system HCT-15.
Assay [11] relates to OVCAR-3.
The subject of assay [12] is SNB-19.
Assay [13] has as its system UACC-62.
Assay [14] concerns CCRF-CEM.
Assay [15] deals with MOLT-4.
The subject of assay [16] is BT-549.
Assay [17] has as its system MDA-MB-435.
The subject of assay [18] is MDA-N.
The test system of assay [19] is NCI/ADR-RES.
Assay [20] relates to SR.

For the molecule `CC1=C(O)/C(=C/C(C)CCC/C(C)=C/C=C/C(C)CCCc2ccoc2)OC1=O` (centres undefined), the GI50 was 35.3 µM (inactive) in assay [1]; 49.7 µM (inactive) in assay [2]; 25 µM (inactive) in assay [3]; 24.7 µM (inactive) in assay [4]; 10.1 µM (inactive) in [5]; 29.4 µM (inactive) in assay [6]. Further, the GI50 in [7] was 26.7 µM (inactive); in assay [8], 30.3 µM (inactive); in assay [9], 69.2 µM (inactive).

Regarding `CC(C)(C)/N=C\N1CCC(C(c2ccccc2)c2ccccc2)CC1`, the GI50 in assay [1] is 19.1 µM (inactive); in [2], 72.1 µM (inactive); in assay [3] it was > 100 µM (inactive); in assay [10] it was 55.3 µM; in assay [5], 18.2 µM (inactive); in assay [11], 80.5 µM (inactive). The GI50 in [6] is 46.8 µM (inactive); in assay [7] it was 49.8 µM (inactive); in [8], 78.7 µM (inactive); in assay [12], > 100 µM (inactive); in [13], 35.7 µM (inactive).

As to `CC1c2[nH]c3ccccc3c2CCN1O` (centres undefined), the GI50 in assay [14] was > 100 µM (inactive); in assay [1], > 100 µM (inactive); in [2], > 100 µM (inactive); in assay [3], > 100 µM (inactive); in [10], more than 100 µM; in assay [4] it was > 100 µM (inactive). Besides, the GI50 in assay [15], in [5], in [11], in assay [6], in assay [7] and in [8] was > 100 µM (inactive) each time. The GI50 was > 100 µM (inactive) in assay [12], > 100 µM (inactive) in [13] and 29.4 µM (inactive) in [9].

Regarding `CN(C)c1n/c(=N/c2ccc3c(c2)OCO3)ss1`, the GI50 in assay [14] is 32.5 µM (inactive); in [2], 38.6 µM (inactive); in assay [3], 49.9 µM (inactive); in assay [10], 40.4 µM; in assay [4], 19 µM (inactive); in assay [15] it was 22.4 µM (inactive). Moreover, the GI50 in assay [5] was > 100 µM (inactive); in assay [6], > 100 µM (inactive); in [7], 47.6 µM (inactive); in assay [8], 67.6 µM (inactive); in assay [12] it was 74.5 µM (inactive); in [13] it was 58.3 µM (inactive). Moreover, the GI50 in assay [9] is 27.2 µM (inactive).

For the molecule `CSc1nc(NC2OCC(OC(C)=O)C(OC(C)=O)C2OC(C)=O)c2c(n1)OCC2=O` (centres undefined), the GI50 in assay [14] was > 100 µM (inactive); in [1] it was > 100 µM (inactive); in [2] it was > 100 µM (inactive); in assay [3] it was > 100 µM (inactive); in assay [10], more than 100 µM; in assay [4], > 100 µM (inactive). Further, the GI50 in assay [15], in [5], in assay [11], in assay [7], in [8] and in [12] was > 100 µM (inactive) throughout. Also, the GI50 in [13] and in [9] was > 100 µM (inactive) in each case.

`CC(C)(C)[C@H]1CCC2(OCCO2)[C@](O)(CCCO)C1`: the GI50 was > 100 µM (inactive) in assay [16]; > 100 µM (inactive) in [14]; > 100 µM (inactive) in assay [1]; > 100 µM (inactive) in assay [3]; more than 100 µM in assay [10]; > 100 µM (inactive) in [4]. The GI50 in assay [17], in [18], in assay [15], in [5], in assay [19] and in [11] was > 100 µM (inactive) in each case. In addition, the GI50 in assay [6], in [7], in [8], in [12], in assay [20] and in assay [13] was > 100 µM (inactive) each time. The GI50 in assay [9] was > 100 µM (inactive).

`O=C1OC(=O)C2C1C(c1ccccc1[N+](=O)[O-])C=C(c1ccco1)N2c1ccncc1` (centres undefined): the GI50 is 11.6 µM (inactive) in assay [16]; 2.29 µM (inactive) in assay [14]; 7.98 µM (inactive) in assay [1]; 15.2 µM (inactive) in assay [3]; 2.92 µM in assay [10]; 1.77 µM (inactive) in assay [4]. The GI50 in [17] is 8.39 µM (inactive); in assay [18], 4.52 µM (inactive); in [15] it was 1.88 µM (inactive); in assay [5] it was 25.1 µM (inactive); in assay [19] it was 18.8 µM (inactive); in assay [11], 11.9 µM (inactive). Further, the GI50 in assay [6] was 15.2 µM (inactive); in assay [7] it was 10.3 µM (inactive); in assay [8], 4.65 µM (inactive); in [12] it was 8.39 µM (inactive); in assay [20] it was 0.679 µM (active); in [13], 16.9 µM (inactive). In addition, the GI50 in assay [9] is 6.01 µM (inactive).

`Cc1cn2c(=O)c3ncn(C4OC(CO)C(O)C4O)c3n(C)c2n1` (centres undefined): the GI50 is > 100 µM (inactive) in [14]; > 100 µM (inactive) in assay [1]; > 100 µM (inactive) in assay [2]; > 100 µM (inactive) in assay [3]; more than 100 µM in assay [10]; > 100 µM (inactive) in [4]. Further, the GI50 in [15], in [5], in assay [11], in [6], in [7] and in assay [8] was > 100 µM (inactive) in each case. Besides, the GI50 in [12], in assay [13] and in assay [9] was > 100 µM (inactive) in each case.

In the case of `Clc1nc(Cl)c(Cl)c(Cl)n1`, the GI50 is 20.6 µM (inactive) in [16]; 5.15 µM (inactive) in assay [14]; 8.57 µM (inactive) in [1]; 32.1 µM (inactive) in assay [3]; 19.1 µM in assay [10]; 13.5 µM (inactive) in assay [4]. Also, the GI50 in [17] is 21.8 µM (inactive); in assay [18], 19.1 µM (inactive); in assay [15] it was 6.21 µM (inactive); in assay [5] it was 16 µM (inactive); in assay [19], 23.4 µM (inactive); in [11], 13.9 µM (inactive). The GI50 in assay [6] is 23 µM (inactive); in assay [7], 17.2 µM (inactive); in [8], 23 µM (inactive); in assay [12], 22.3 µM (inactive); in assay [20] it was 5.96 µM (inactive); in assay [13] it was 18.5 µM (inactive). Further, the GI50 in assay [9] is 24.5 µM (inactive).

Consider `O=C(/C=C/c1ccc(Cl)c(Cl)c1)C1CCC(Cl)CC1` (centres undefined), for which the GI50 in assay [1] was 21.8 µM (inactive); in assay [2], 16.3 µM (inactive); in assay [3], 17.4 µM (inactive); in assay [10] it was 18.2 µM; in [5] it was 18.5 µM (inactive); in assay [11], 15 µM (inactive). The GI50 in assay [6] is 17 µM (inactive); in [7], 19.5 µM (inactive); in assay [8], 18.4 µM (inactive); in [12], 17.7 µM (inactive); in assay [13], 17 µM (inactive); in assay [9] it was 18.4 µM (inactive).

As to `O/N=C1/C(=C/c2ccc3c(c2)OCO3)CCCC1C(NO)c1ccc2c(c1)OCO2` (centres undefined), the GI50 in assay [14] is 19.2 µM (inactive); in [1] it was 25.4 µM (inactive); in assay [2] it was 22.6 µM (inactive); in assay [3], 35.1 µM (inactive); in [10] it was 32 µM; in assay [4], 15.9 µM (inactive). Also, the GI50 in assay [15] is 16.9 µM (inactive); in assay [5], 22 µM (inactive); in assay [11] it was 14.6 µM (inactive); in [6], 24.6 µM (inactive); in [7] it was 28.2 µM (inactive); in [8], 18 µM (inactive). In addition, the GI50 in [12] was 32.4 µM (inactive); in assay [13], 19 µM (inactive); in assay [9] it was 23.4 µM (inactive).

Regarding `Nn1c(Nc2ccc(S(N)(=O)=O)cc2)nnc(/C=C/c2c(O)ccc3ccccc23)c1=O`, the GI50 in assay [16] was 14.9 µM (inactive); in [14], 4.03 µM (inactive); in assay [1], 27.1 µM (inactive); in assay [3], 13.3 µM (inactive); in [10], 12.8 µM; in assay [4], 7.74 µM (inactive). For the same molecule, the GI50 in [17] was 20.4 µM (inactive); in assay [18], 16.3 µM (inactive); in assay [15], 0.234 µM (active); in [5] it was 15.7 µM (inactive); in assay [19], 16.3 µM (inactive); in [11], 13 µM (inactive). In addition, the GI50 in [6] is 15.3 µM (inactive); in assay [7] it was 42.1 µM (inactive); in [8], 35.7 µM (inactive); in [12] it was 32.5 µM (inactive); in assay [20], 8.77 µM (inactive); in assay [13] it was 18.7 µM (inactive). In addition, the GI50 in assay [9] is 22.9 µM (inactive).

For `COc1cc2c(cc1OC)-c1cc3ccc(OC)c(OC)c3c[n+]1CC2` [PALMATINE CHLORIDE], the GI50 was > 100 µM (inactive) in assay [16]; > 100 µM (inactive) in [14]; 24.4 µM (inactive) in assay [1]; > 100 µM (inactive) in [3]; more than 100 µM in assay [10]; > 100 µM (inactive) in assay [4]. Also, the GI50 in assay [17] is > 100 µM (inactive); in assay [18], > 100 µM (inactive); in assay [15], > 100 µM (inactive); in assay [5], > 100 µM (inactive); in assay [19] it was > 100 µM (inactive); in [11] it was 39.9 µM (inactive). Moreover, the GI50 in assay [6] was > 100 µM (inactive); in [7], 82.4 µM (inactive); in assay [8], > 100 µM (inactive); in assay [12], 15.5 µM (inactive); in assay [20] it was > 100 µM (inactive); in [13], > 100 µM (inactive). In addition, the GI50 in assay [9] was > 100 µM (inactive).
